Reference: article PMC10314207, “The Dynamic Intestinal Absorption Model (Diamod®), an in vitro tool to study the interconnected kinetics of gastrointestinal solubility, supersaturation, precipitation, and intestinal permeation processes of oral drugs” (International Journal of Pharmaceutics: X, 2023)
≈ marks a conversion by molar mass, not a printed value. Where a name gives a salt, the structure may show the parent alone.

Tests used:
[1] = high carbohydrate meal; ref Carver et al. (1999); cited from earlier work
[2] = Diamod® fed state: indinavir sulfate with protein meal (Ensure® plus) or carbohydrate meal, high or low bile salts
[3] = ref Bevernage et al., 2012; cited from earlier work
[4] = water intake versus no water, cited from earlier work
[5] = Diamod® fasted state: 20 mL Sporanox® solution without or with 240 mL water (stomach, duodenum, permeate); assay type: in vitro ADME
Experimental: The stomach vessel accepts gastric secretions (Flow rate F1) and is continuously emptied (Flow rate F2) into the second reactor vessel which simulates the lumen of the duodenum and the blood stream that accepts the permeated fraction. […] The geometry of the inner donor compartment is designed to contain biorelevant duodenal volumes (30 mL), to generate a permeation surface area of 65 cm^2 and to result in a permeation surface area to donor volume ratio of 2 cm^−1.

[6] = fed, carbohydrate meal, high bile salts

Question: For CC(C)(C)NC(=O)[C@@H]1CN(Cc2cccnc2)CCN1C[C@@H](O)C[C@@H](Cc1ccccc1)C(=O)N[C@H]1c2ccccc2C[C@H]1O [indinavir sulfate], which “increase of Tmax” value [1] is on record?
Answer: approximately 3 h

Question: What about the “decrease in average duodenal solute concentration AUC0–240min” value ([2]; fed high protein meal versus fasted) of the same compound?
Answer: 34.2%

Question: Which “solubility in FaSSGF” value [3] does the source give for CCC(C)n1ncn(-c2ccc(N3CCN(c4ccc(OCC5COC(Cn6cncn6)(c6ccc(Cl)cc6Cl)O5)cc4)CC3)cc2)c1=O (stereo not drawn) [itraconazole] here?
Answer: 2.7 µM (≈ 1.91 µg/mL)

Question: And the “reduction (times) in average dissolved gastric AUC0-3h” value ([4]; in vivo, ref Berben et al., 2017)?
Answer: 1.8 times

Question: And the “additional precipitation in the duodenum upon water intake” value ([5]; difference of solute and total AUC reduction)?
Answer: 24.0%

Question: What about the “dissolution state during transit through the stomach” value ([5]; independently of water intake) of the same compound?
Answer: completely dissolved

Question: What about the “decrease in AUC0-180min of permeated drug” value ([5]; water intake versus no water) of the same compound?
Answer: 3.2%

Question: And the “decrease in stomach solute AUC0-180min” value ([5]; water intake versus no water)?
Answer: 47%

Question: What about the “decrease in stomach total AUC0-180min” value ([5]; water intake versus no water) of the same compound?
Answer: 45%

Question: And the “decrease of duodenal AUC0-180min of solute concentration” value ([5]; water intake versus no water)?
Answer: 56.1%

Question: And the “fold decrease of stomach AUC0-180min of solute itraconazole” value ([5]; water intake versus no water)?
Answer: 1.9 fold

Question: And the “reduction of duodenal AUC0-180min of total concentration” value ([5]; water intake versus no water)?
Answer: 32.1%

Question: Which “fold decrease in duodenal AUC0-3h” value ([4]; in vivo duodenal aspirates, ref Berben et al. (2018c)) does the source give for CC(O)COC[C@H]1O[C@@H]2O[C@H]3[C@H](O)[C@@H](O)[C@@H](O[C@H]4[C@H](O)[C@@H](O)[C@@H](O[C@H]5[C@H](O)[C@@H](O)[C@@H](O[C@H]6[C@H](O)[C@@H](O)[C@@H](O[C@H]7[C@H](O)[C@@H](O)[C@@H](O[C@H]8[C@H](O)[C@@H](O)[C@@H](O[C@H]1[C@H](O)[C@H]2O)O[C@@H]8COCC(C)O)O[C@@H]7COCC(C)O)O[C@@H]6COCC(C)O)O[C@@H]5COCC(C)O)O[C@@H]4COCC(C)O)O[C@@H]3COCC(C)O (stereo partly drawn) [2-HP-β-CD, 2-hydroxypropyl-β-cyclodextrin] here?
Answer: 2.3 fold

Question: Which “Cmax total in the duodenum” value [2, 6] does the source give for CC(C)(C)NC(=O)[C@@H]1CN(Cc2cccnc2)CCN1C[C@@H](O)C[C@@H](Cc1ccccc1)C(=O)N[C@H]1c2ccccc2C[C@H]1O [indinavir] here?
Answer: 504.3 ± 3.1 µM

Question: What about the “Cmax total in the stomach” value [2, 6] of the same compound?
Answer: 1225.5 ± 19.9 µM

Question: And the “supersaturation state in the duodenum” value [2, 6]?
Answer: supersaturated throughout the transit through the duodenum

Question: What about the “supersaturation state in the duodenum” value ([2]; fed, carbohydrate meal, low bile salts) of the same compound?
Answer: supersaturating throughout the transit through the duodenum

Question: And the “Cmax total in the duodenum” value ([2]; fed, high protein meal)?
Answer: 514.8 ± 16.5 µM

Question: And the “Cmax total in the stomach” value ([2]; fed, high protein meal (Ensure® Plus))?
Answer: 1386.0 ± 120.11 µM

Question: What about the duodenal solute concentrations ([2]; fed, high protein meal, after bile salts decreased towards fasted levels) of the same compound?
Answer: around 100 μM

Question: What about the “supersaturation state in the duodenum” value ([2]; fed, high protein meal, period of high bile salts) of the same compound?
Answer: not in a state of supersaturation
